# Earlier results in patent US20250205171A1, “TRANSDERMAL DELIVERY SYSTEMS FOR CERTAIN FACTOR Xa INHIBITORS AND RELATED METHODS FOR THEIR PREPARATION AND USE” (ARx, LLC, priority 2022, published 2025).
row,Compound,water solubility
1,COC(=O)[C@H](Cc1cccc(C(=N)N)c1)[C@@H](C)NC(=O)c1ccc(-c2cc[n+]([O-])cc2)cc1 [otamixaban],about 0.0088 mg/mL
2,CO[C@@H]1C[C@H](C(=O)Nc2ccc(-n3ccccc3=O)cc2F)N(C(=O)Nc2ccc(Cl)cc2)C1 [eribaxaban],about 0.00717 mg/mL
3,CO[C@H]1O[C@H](COS(=O)(=O)O)[C@@H](O[C@@H]2O[C@@H](C(=O)O)[C@@H](O[C@H]3O[C@H](COS(=O)(=O)O)[C@@H](O[C@@H]4O[C@H](C(=O)O)[C@@H](O[C@H]5O[C@H](COS(=O)(=O)O)[C@@H](O)[C@H](O)[C@H]5NS(=O)(=O)O)[C@H](O)[C@H]4O)[C@H](OS(=O)(=O)O)[C@H]3NS(=O)(=O)O)[C@H](O)[C@H]2OS(=O)(=O)O)[C@H](O)[C@H]1NS(=O)(=O)O [fondaparinux],about 7.91 mg/mL
4,O=C([C@H](O)CS(=O)(=O)c1ccc2cc(Cl)ccc2c1)N1CCC(N2CCCNC2=O)CC1 [letaxaban],about 0.217 mg/mL
5,CN1CCc2nc(C(=O)N[C@@H]3C[C@@H](C(=O)N(C)C)CC[C@@H]3NC(=O)C(=O)Nc3ccc(Cl)cn3)sc2C1 [edoxaban],about 0.093 mg/mL

# Results, then the molecule that gave them:
row,water solubility,Compound
1,2500 to 2700 µg/mL,COc1ccc(NC(=O)c2ccc(C(=N)N(C)C)cc2)c(C(=O)Nc2ccc(Cl)cn2)c1 [betrixaban]
2,about 0.01 mg/mL,O=C(NC[C@H]1CN(c2ccc(N3CCOCC3=O)cc2)C(=O)O1)c1ccc(Cl)s1 [rivaroxaban]
3,about 0.11 mg/mL,COc1ccc(-n2nc(C(N)=O)c3c2C(=O)N(c2ccc(N4CCCCC4=O)cc2)CC3)cc1 [apixaban]
4,about 0.0048 mg/mL,COc1ccc(C(=O)Nc2cccc(O)c2NC(=O)c2ccc(N3CCCN(C)CC3)cc2)cc1 [darexaban]
